From US20230000820A1, “SOLID DOSAGE FORM OF N-1-PYRROLIDINE-N-5-(3-TRIFLUOROMETHOXY)PHENYL BIGUANIDE AND USES THEREOF” (ImmunoMet Therapeutics, Inc., priority 2021, published 2023)
Where two headings read alike, the source gives them in different places.

Legend:
[1] = system: Beagle dogs; test: Clinical Observation/Cageside Observation of dogs treated with compound 1 (Example 1); type: in vivo
Protocol: (§1) Animals were dosed with N-1-pyrrolidine-N-5-(3-trifluoromethoxy)phenyl biguanide acetate salt as specified in Table 1. Dosages were freshly prepared on the day of dosing. The PO (per os) solution was DI water. The enteric capsule was HMPC enteric-coated capsules. The test substance was prepared and used immediately before administration. The preparation method was to weigh N-1-pyrrolidine-N-5-(3-trifluoromethoxy)phenyl biguanide and add sterile distilled water. The mixture was titrated to final volumes by mixing via sonication for 2 minutes and vortexing for 5 minutes. During the administration time, the preparation was handled at room temperature. All animals for IV administration had free access to food and water. Animals for PO were fasted overnight prior to dosing and were fed approximately 2 hours after dosing. Group 2 shared the same 2 animals. Animals in PO_A arm were dosed first. After 2 days washout period, animals in PO_B arm were dosed. After 2 days washout period, animals in PO_C arm were dosed. Clinical observations of animals treated with compound 1 were recorded as specified in Tables 3-5.

[2] = system: human subjects; settings: in vivo
Protocol: A phase 1 clinical study investigating the safety and tolerability of compound 1 in human subjects was conducted. Healthy volunteers were administered either an uncoated tablet at 100 mg QD (cohort 1, N=6), 200 mg QD (cohort 2, N=6), or 400 mg QD (cohort 3, N=6), or a coated tablet at 400 mg (cohort 4, N=6) or 800 mg QD (cohort 5, N=6), and the compound 1 plasma concentration achieved by the subjects was recorded over time (FIGS. 2 and 4). Cancer patients were administered either an uncoated tablet at 100 mg QOD (cohort 1, N=3), 200 mg QOD (cohort 2, N=3), 400 mg QOD (cohort 3, N=3), 800 mg QOD (cohort 4, N=3), or 1200 mg QOD (cohort 5, N=3), or were administered an uncoated tablet at 800 mg QD (cohort 6, N=3) or 1200 mg QD (cohort 7, N=4), and the compound 1 plasma concentration achieved by the subjects was recorded over time (FIGS. 3 and 4).

[3] = set-up: species or system Beagle dogs; settings: dog, in vivo, po
Protocol: as §1
Plasma for both IV and PO dosing was sampled from animals pre-dose, and 5 minutes, 15 minutes, 30 minutes, 1 hour, 2 hours, 4 hours, 8 hours, and 24 hours post dose.
Samples were collected via venipuncture of peripheral veins except the dosing vein. 0.3 mL of blood was drawn per time point. The anticoagulant used was potassium EDTA. Whole blood samples were gently inverted several times to ensure anticoagulation then placed on wet ice prior to centrifugation. Within 30 minutes of collection, the samples were centrifuged at approximately 2000×g (force) for 10 minutes at 2 to 8° C. to obtain plasma. The resultant plasma samples were immediately separated divided into 2 aliquots (˜[…] each) and transferred to cryogenic vial. Samples were maintained on wet ice throughout processing and stored in a freezer at −75±15° C. prior to analysis.
The standard curve was run in duplicate with a minimum of six standards, and a minimum of five standards and the LLOQ should fall within ±20% of the nominal value. Verapamil and dexamethasone were normally used as internal standards. […] A minimum of duplicate QC's at three concentrations (low, mid, and high QC) were incorporated into each run with the low QC no more than 3×LLOQ, the mid QC around the middle of the curve, and the high QC should be near the ULOQ (minimally 80% but less than 100% of the value of the highest standard) for the run and the mean value should be within ±20% of the theoretical value. The results of the QC's provide the basis for accepting or rejecting the run. At least 67% or four of six QC's should be within 20% of their respective nominal values; 33% of the QC's (not replicates of the same concentration) can fall outside 20% of nominal value. The simplest model that adequately describes the concentration-response relationship should be used. Linear or quadratic regression can be used. Weighting was 1/x or 1/x2.
Concentrations of Test Article in the plasma samples were analyzed using a LC-MS/MS method. WinNonlin (Phoenix™, version 6.1) or other similar software will be used for pharmacokinetic calculations. The following pharmacokinetic parameters were be calculated, whenever possible from the plasma concentration versus time data: PO administration: T1/2, Cmax, Tmax, MRTinf, AUCinf, AUClast, F%, Number of Points for Regression (FIG. 1). […]

[4] = system: human subjects; settings: in vivo; remark: listed apart in the source
Protocol: A phase 1 clinical study investigating the safety and tolerability of compound 1 in human subjects was conducted. Healthy volunteers were administered either an uncoated tablet at 100 mg QD (cohort 1, N=6), 200 mg QD (cohort 2, N=6), or 400 mg QD (cohort 3, N=6), or a coated tablet at 400 mg (cohort 4, N=6) or 800 mg QD (cohort 5, N=6), and the compound 1 plasma concentration achieved by the subjects was recorded over time (FIGS. 2 and 4). Cancer patients were administered either an uncoated tablet at 100 mg QOD (cohort 1, N=3), 200 mg QOD (cohort 2, N=3), 400 mg QOD (cohort 3, N=3), 800 mg QOD (cohort 4, N=3), or 1200 mg QOD (cohort 5, N=3), or were administered an uncoated tablet at 800 mg QD (cohort 6, N=3) or 1200 mg QD (cohort 7, N=4), and the compound 1 plasma concentration achieved by the subjects was recorded over time (FIGS. 3 and 4). A phase 1 clinical study investigating the safety and tolerability of compound 1 in human subjects was conducted. 22 subjects with solid tumors were enrolled and split into seven cohorts. Cohort 1 received 100 mg QOD, cohort 2 received 200 mg QOD, cohort 3 received 400 mg QOD, cohort 4 received 800 mg QOD, cohort 5 received […], cohort 6 received 800 mg QD, and cohort 7 received 1,200 mg QD.

For `N=C(NC(=N)N1CCCC1)Nc1cccc(OC(F)(F)F)c1` [compound 1, N-1-pyrrolidine-N-5-(3-trifluoromethoxy)phenyl biguanide], the “Notes: tolerability” value ([1]; PO A, HPMC Enteric Coating Capsule, vs Initial Formulation and Dosing (PO B)) was “Improved”, the “Notes: tolerability” value ([1]; PO C, Zofran given prior to compound 1 dosing) was “no difference” and the “Loose feces observed, timepoint” value ([1]; dog, in vivo) was “d. Loose feces was observed from POC-4(8319440) at 8 h timepoint”. For the same compound, the Comment present ([1]; dog, in vivo, 100 mg/kg) was “No”, the Discoloration ([1]; dog, in vivo, 100 mg/kg) was “No” and the “Dyspnea (labored breathing)” value ([1]; dog, in vivo, 100 mg/kg) was “No”. For the same compound, the “Emesis observed, timepoint” value ([1]; dog, in vivo, 100 mg/kg) was “c. “Loose feces” and “emesis” were observed from POA-4(8319440) at 4 h timepoint”, the “Feces with abnormal content” value ([1]; dog, in vivo, 100 mg/kg) was “No” and the Few feces ([1]; dog, in vivo, 100 mg/kg) was “No”. The Frothy ([1]; dog, in vivo, 100 mg/kg) was “No”, the Loose feces ([1]; dog, in vivo, 100 mg/kg) was “Yes(f)” and the Reduced food intake ([1]; dog, in vivo, 100 mg/kg) was “No”. For the same compound, the “Soft Stool” value ([1]; dog, in vivo, 100 mg/kg) was “No”, the “Soft stool observed, timepoint” value ([1]; dog, in vivo, 100 mg/kg) was “f. Soft stool was observed from POA-3(8310744) and POA-4(8319440) at 24 h timepoint” and the “Some broken capsule found in the loose feces, timepoint” value ([1]; dog, in vivo, 100 mg/kg) was “b. Some broken capsule was found in the loose feces at 30 min timepoint from POA-3”. The “Temperature Drop” value ([1]; dog, in vivo, 100 mg/kg) was “No”, the “Temperature Rise” value ([1]; dog, in vivo, 100 mg/kg) was “No” and the Torpidity ([1]; dog, in vivo, 100 mg/kg) was “No”. For the same compound, the “Tremor (slight)” value ([1]; dog, in vivo, 100 mg/kg) was “No”, the Uncoordinated movement ([1]; dog, in vivo, 100 mg/kg) was “No” and the Weight drop ([1]; dog, in vivo, 100 mg/kg) was “No”. The Comment present ([1]; dog, in vivo, iv, 10 mg/kg) was “No”, the Diarrhea ([1]; dog, in vivo, iv, 10 mg/kg) was “No” and the Discoloration ([1]; dog, in vivo, iv, 10 mg/kg) was “No”. For the same compound, the “Dyspnea (labored breathing)” value ([1]; dog, in vivo, iv, 10 mg/kg) was “No”, the “Feces with abnormal content” value ([1]; dog, in vivo, iv, 10 mg/kg) was “No” and the Few feces ([1]; dog, in vivo, iv, 10 mg/kg) was “No”. The Frothy ([1]; dog, in vivo, iv, 10 mg/kg) was “No”, the Loose feces ([1]; dog, in vivo, iv, 10 mg/kg) was “No” and the Reduced food intake ([1]; dog, in vivo, iv, 10 mg/kg) was “No”. The “Soft Stool” value ([1]; dog, in vivo, iv, 10 mg/kg) was “No”, the “Temperature Drop” value ([1]; dog, in vivo, iv, 10 mg/kg) was “No” and the “Temperature Rise” value ([1]; dog, in vivo, iv, 10 mg/kg) was “No”. For the same compound, the Torpidity ([1]; dog, in vivo, iv, 10 mg/kg) was “No”, the “Tremor (slight)” value ([1]; dog, in vivo, iv, 10 mg/kg) was “No” and the Uncoordinated movement ([1]; dog, in vivo, iv, 10 mg/kg) was “No”. The Weight drop ([1]; dog, in vivo, iv, 10 mg/kg) was “No”, the Gastrointestinal adverse events [2] was “Low-grade gastrointestinal adverse events were prominent” and the “Notes: AUC” value [3] was “Improved AUC”. For the same compound, the “Notes: Bioavailability” value [3] was “Improved”, the “Notes: PK” value [3] was “no difference in PK” and the AUCInf ([3]; 100 mg/kg) was 10750 ng·h/mL. The T1/2 ([3]; 100 mg/kg) was 6.65 h, the “Adverse events reported, character” value [4] was “primarily GI, low-grade, monitorable, manageable, and reversible” and the Dose limiting toxicities [4] was “no dose limiting toxicities”. For the same compound, the “Dose suggested as suitable for phase 2 studies” value [4] was 800 mg QD and the Gastrointestinal adverse events [4] was “Low-grade gastrointestinal adverse events were prominent”.
